These results are taken from article PMC10507085, “Pharmacological inhibition of TBK1/IKKε blunts immunopathology in a murine model of SARS-CoV-2 infection” (Nature Communications, 2023).

Each structure is given as a SMILES string.

Some targets named below: LYN (Homo sapiens, UniProt P07948); CDK4 (Homo sapiens, UniProt P11802); SRMS (Homo sapiens, UniProt Q9H3Y6); MKNK1 (Homo sapiens, UniProt Q9BUB5); SIK2 (Homo sapiens, UniProt Q9H0K1); CSNK1A1L (Homo sapiens, UniProt Q8N752); PRKCI (Homo sapiens, UniProt P41743); INSRR (Homo sapiens, UniProt P14616); AXL (Homo sapiens, UniProt P30530); NTRK2 (Homo sapiens, UniProt Q16620); FES (Homo sapiens, UniProt P07332); NTRK3 (Homo sapiens, UniProt Q16288); CDK4-cyclinD3 (Homo sapiens, UniProt P11802); PRKD3 (Homo sapiens, UniProt O94806); PKN1 (Homo sapiens, UniProt Q16512); STK11 (Homo sapiens, UniProt Q15831); CDC42BPB (Homo sapiens, UniProt Q9Y5S2); PRKD1 (Homo sapiens, UniProt Q15139).

What all share (experiment): biochemical
What all share (design): KINOMEscan competition binding, DNA-tagged kinase against immobilised ligand, qPCR read-out
Common to all, as to conditions: read-out: Percent Control

Test [1] has as its target T1, JAK1(JH1domain-catalytic) (Homo sapiens, UniProt P23458).
T1 construct: JH1 domain catalytic

The target in test [2] is T2, JAK1(JH2domain-pseudokinase) (Homo sapiens, UniProt P23458).
T2 construct: JH2 domain pseudokinase
T2 sequence (P23458 whole entry, the tested form may be a part): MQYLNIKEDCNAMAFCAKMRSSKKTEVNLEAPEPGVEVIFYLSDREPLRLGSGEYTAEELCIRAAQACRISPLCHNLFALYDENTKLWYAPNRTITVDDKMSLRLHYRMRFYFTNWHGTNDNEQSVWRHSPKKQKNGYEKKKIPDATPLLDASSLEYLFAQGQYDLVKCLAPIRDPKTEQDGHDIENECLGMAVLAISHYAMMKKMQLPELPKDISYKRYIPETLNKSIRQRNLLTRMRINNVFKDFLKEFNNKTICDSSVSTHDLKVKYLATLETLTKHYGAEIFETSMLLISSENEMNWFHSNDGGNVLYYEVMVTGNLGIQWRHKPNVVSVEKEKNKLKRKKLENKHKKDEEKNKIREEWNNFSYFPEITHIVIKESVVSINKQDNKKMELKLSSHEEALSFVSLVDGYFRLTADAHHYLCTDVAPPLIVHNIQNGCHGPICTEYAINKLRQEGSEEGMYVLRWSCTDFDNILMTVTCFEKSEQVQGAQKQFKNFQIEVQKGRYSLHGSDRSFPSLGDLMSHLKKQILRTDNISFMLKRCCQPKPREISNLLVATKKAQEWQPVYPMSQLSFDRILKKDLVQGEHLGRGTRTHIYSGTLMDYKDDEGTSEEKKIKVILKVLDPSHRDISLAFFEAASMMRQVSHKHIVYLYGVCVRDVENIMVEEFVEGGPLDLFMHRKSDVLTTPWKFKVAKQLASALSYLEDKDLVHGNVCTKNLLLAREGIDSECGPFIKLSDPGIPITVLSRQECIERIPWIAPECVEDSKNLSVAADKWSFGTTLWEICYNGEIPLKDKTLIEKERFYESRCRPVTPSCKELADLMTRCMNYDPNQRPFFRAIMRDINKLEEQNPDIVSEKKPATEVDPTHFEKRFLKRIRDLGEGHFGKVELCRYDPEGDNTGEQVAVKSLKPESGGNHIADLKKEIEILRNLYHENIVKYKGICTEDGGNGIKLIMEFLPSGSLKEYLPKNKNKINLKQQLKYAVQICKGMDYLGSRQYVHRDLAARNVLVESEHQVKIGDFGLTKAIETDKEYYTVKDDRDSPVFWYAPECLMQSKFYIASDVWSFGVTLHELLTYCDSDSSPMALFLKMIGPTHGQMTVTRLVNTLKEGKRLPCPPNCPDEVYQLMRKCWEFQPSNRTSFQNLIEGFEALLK

Sequence of MKNK1 (Q9BUB5 whole entry): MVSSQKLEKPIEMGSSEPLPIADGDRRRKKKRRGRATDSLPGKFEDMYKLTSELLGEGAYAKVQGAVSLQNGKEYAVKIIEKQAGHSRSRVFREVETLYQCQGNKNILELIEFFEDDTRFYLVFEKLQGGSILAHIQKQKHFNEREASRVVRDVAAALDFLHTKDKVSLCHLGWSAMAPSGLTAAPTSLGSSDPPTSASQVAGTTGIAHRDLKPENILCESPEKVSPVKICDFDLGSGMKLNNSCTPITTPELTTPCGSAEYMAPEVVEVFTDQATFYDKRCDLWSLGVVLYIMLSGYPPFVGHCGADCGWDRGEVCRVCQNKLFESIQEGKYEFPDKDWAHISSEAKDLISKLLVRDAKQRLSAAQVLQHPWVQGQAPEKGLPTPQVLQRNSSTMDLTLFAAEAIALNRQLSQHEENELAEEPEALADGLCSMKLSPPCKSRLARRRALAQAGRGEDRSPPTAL
T1 sequence (P23458 whole entry, the tested form may be a part): as the sequence (P23458 whole entry, the tested form may be a part) above
Sequence of INSRR (P14616 whole entry): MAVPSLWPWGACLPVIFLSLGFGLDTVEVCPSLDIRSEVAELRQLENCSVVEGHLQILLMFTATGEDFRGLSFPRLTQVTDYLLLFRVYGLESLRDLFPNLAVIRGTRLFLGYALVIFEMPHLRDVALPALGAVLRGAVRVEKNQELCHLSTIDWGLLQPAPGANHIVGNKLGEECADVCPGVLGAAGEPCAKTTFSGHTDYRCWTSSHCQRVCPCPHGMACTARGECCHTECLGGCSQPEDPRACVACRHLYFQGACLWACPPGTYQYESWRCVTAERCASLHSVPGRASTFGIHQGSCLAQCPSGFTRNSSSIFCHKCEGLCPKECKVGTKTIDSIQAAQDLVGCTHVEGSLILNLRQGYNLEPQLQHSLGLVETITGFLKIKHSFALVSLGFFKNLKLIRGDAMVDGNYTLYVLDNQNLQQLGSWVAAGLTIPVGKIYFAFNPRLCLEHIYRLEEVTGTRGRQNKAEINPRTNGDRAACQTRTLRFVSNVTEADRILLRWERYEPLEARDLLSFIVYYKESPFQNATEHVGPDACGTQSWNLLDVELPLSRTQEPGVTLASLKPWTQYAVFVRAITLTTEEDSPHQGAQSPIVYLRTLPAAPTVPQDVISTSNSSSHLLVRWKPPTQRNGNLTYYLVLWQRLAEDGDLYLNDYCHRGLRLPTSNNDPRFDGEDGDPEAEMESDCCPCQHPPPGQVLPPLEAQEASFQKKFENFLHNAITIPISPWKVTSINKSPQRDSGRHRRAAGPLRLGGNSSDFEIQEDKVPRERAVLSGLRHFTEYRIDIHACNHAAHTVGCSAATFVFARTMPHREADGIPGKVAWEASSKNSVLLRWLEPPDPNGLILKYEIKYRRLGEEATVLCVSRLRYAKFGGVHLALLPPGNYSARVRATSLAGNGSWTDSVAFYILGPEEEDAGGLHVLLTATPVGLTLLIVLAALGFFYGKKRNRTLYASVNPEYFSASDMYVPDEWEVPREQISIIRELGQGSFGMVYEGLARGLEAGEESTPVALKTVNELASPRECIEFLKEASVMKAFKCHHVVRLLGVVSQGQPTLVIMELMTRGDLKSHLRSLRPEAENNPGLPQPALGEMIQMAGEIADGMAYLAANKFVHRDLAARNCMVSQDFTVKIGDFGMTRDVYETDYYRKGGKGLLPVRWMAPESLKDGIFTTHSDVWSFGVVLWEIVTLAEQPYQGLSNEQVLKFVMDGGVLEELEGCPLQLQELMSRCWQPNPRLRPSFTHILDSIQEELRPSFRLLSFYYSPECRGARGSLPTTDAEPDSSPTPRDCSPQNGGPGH
Sequence of PRKCI (P41743 whole entry): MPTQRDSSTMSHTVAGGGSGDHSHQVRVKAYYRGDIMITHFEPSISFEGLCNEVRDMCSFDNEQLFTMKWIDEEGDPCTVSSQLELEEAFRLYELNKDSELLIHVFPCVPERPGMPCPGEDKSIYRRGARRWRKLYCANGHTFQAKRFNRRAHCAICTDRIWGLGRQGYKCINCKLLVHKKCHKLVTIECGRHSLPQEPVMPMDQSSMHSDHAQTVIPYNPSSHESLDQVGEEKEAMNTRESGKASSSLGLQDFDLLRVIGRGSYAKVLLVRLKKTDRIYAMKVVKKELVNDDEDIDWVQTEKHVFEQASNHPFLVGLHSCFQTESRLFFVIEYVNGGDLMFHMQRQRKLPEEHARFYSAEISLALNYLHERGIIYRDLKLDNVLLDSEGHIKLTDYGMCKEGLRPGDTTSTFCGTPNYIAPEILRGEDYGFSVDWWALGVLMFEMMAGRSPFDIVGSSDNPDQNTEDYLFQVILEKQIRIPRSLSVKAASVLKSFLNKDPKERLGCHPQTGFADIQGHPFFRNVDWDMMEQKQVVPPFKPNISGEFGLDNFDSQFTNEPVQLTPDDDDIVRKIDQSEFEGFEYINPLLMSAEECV
Sequence of CSNK1A1L (Q8N752 whole entry): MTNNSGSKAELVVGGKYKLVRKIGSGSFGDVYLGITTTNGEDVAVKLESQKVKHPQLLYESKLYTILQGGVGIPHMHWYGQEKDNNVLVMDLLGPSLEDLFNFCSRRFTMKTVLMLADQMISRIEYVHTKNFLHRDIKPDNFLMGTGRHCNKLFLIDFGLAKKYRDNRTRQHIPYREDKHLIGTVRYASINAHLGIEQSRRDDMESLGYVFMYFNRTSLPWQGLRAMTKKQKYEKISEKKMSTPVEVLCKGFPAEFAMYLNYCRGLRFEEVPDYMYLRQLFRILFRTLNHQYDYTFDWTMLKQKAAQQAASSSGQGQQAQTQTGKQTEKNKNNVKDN
Sequence of AXL (P30530 whole entry): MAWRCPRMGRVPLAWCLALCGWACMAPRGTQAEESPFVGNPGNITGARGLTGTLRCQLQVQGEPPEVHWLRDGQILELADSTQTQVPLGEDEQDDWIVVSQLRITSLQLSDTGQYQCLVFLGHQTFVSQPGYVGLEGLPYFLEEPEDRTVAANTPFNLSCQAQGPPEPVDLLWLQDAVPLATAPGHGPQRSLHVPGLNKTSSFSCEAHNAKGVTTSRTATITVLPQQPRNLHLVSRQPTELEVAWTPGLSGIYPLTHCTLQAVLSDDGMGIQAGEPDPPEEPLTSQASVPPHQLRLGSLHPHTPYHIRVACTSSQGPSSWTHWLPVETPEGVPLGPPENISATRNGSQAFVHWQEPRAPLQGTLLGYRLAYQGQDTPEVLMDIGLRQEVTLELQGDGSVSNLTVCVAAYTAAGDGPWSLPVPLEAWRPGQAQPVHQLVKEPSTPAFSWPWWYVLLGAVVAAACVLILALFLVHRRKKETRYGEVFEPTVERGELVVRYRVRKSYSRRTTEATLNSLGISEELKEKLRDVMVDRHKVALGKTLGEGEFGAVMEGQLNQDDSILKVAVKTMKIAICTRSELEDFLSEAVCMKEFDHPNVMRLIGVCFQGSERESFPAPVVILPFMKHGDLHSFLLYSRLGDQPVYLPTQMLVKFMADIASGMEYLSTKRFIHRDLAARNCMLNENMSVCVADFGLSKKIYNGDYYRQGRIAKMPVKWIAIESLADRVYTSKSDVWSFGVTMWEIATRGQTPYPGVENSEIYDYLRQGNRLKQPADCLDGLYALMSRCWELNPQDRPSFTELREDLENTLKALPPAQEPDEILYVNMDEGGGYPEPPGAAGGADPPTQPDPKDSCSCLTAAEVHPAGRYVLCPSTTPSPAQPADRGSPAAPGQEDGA

In the case of `Oc1ccc(C2=Cc3ccc(O)cc3OC2)cc1` [compound 1, idronoxil], the remaining binding at 10 µM at LYN amounted to 71%; on CDK4 it was 100%; in [1], 93%; at SRMS, 68%; on MKNK1, 55%; on SIK2 it was 87%. Also, the remaining binding at 10 µM on CSNK1A1L turned out to be 96%; at PRKCI, 70%; on INSRR it was 94%; on AXL, 95%; on NTRK2, 62%; at FES it was 95%. For the same compound, the remaining binding at 10 µM on NTRK3 was found to be 97%; on CDK4-cyclinD3, 85%; in test [2], 90%; at PRKD3, 85%; at PKN1, 66%; at STK11, 81%. Also, the remaining binding at 10 µM at CDC42BPB amounted to 88%; at PRKD1, 96%.
